Literature values as cited in patent publication US7175830B2, “Imaging of drug accumulation as a guide to antitumor therapy” (The United States of America as represented by the …, priority 1999, dated 2007).

Details: circulates in the body; higher than SN-38, the active form

CCc1c2c(nc3ccc(OC(=O)N4CCC(N5CCCCC5)CC4)cc13)-c1cc3c(c(=O)n1C2)COC(=O)[C@]3(O)CC [Irinotecan]
circulating concentration relative to that of its metabolite SN-38: about 100 fold
